Results from US20250171437A1 (Agios Pharmaceuticals,Inc., priority 2022, published 2025).

Target: T1, human PAH with the R408W mutation (A375 R408W cells) (Homo sapiens, UniProt P00439, R408W)
T1 construct: expressed in transfected cells
T1 sequence (P00439 1-452 R408W): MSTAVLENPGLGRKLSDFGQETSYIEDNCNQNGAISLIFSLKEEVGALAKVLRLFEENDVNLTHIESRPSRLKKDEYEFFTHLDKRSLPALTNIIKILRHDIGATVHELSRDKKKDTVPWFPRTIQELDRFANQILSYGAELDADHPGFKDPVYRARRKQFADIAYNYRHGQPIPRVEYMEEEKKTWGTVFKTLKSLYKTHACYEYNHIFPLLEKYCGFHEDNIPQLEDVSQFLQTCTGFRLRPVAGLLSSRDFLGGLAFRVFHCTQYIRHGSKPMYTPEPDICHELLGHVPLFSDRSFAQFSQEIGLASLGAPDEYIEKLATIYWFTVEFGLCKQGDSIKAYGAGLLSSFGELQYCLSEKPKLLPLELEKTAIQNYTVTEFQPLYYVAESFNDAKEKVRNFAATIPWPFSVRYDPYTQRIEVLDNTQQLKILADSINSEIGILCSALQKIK
Test: Cell Based Phenylalanine Flux Assay
Settings: 24 hrs with compound, then 20 μM sepiapterin and 800 μM 13C9,15N-Phenylalanine for 4 hours, 13C-Tyrosine by LC-MS, average where tested multiple times
Summary of the method: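 Phenylalanine-to-tyrosine flux is measured in A375 cells carrying stable human R408W PAH. After 24 h compound exposure, 13C9,15N-Phe (800 μM) with sepiapterin (20 μM) is supplied for 4 h and media 13C-Tyr is read by LC-MS; AC50s are binned.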

[1] = A375 cells expressing R408W PAH

Work on `Cn1cc(-c2nnc(C(=O)N3CCc4[nH]cnc4[C@H]3c3nc4cccc(C(F)(F)F)c4o3)o2)cn1` [Example 830, (S)-(5-(1-methyl-1H-pyrazol-4-yl)-1,3,4-oxadiazol-2-yl)(4-(7-(trifluoromethyl)benzo[d]oxazol-2-yl)-6,7-dihydro-1H-imidazo[4,5-c]pyridin-5(4H)-yl)methanone] yielded an AC50 (A375 R408W cells) of 500 to 1000 nM.

For `Cn1cc(-c2nc(C(F)F)c(C(=O)N3CCc4[nH]cnc4[C@H]3c3nc4cc(F)ccc4o3)o2)cn1` [Example 88, (S)-(4-(difluoromethyl)-2-(1-methyl-1H-pyrazol-4-yl)oxazol-5-yl)(4-(5-fluorobenzo[d]oxazol-2-yl)-6,7-dihydro-1H-imidazo[4,5-c]pyridin-5(4H)-yl)methanone], the AC50 (A375 R408W cells) was 500 to 1000 nM.

`FC(F)(F)c1nnc(N2Cc3[nH]cnc3[C@H]2c2nc3ccccc3o2)o1` [Example 946, (S)-2-(5-(5-(trifluoromethyl)-1,3,4-oxadiazol-2-yl)-1,4,5,6-tetrahydropyrrolo[3,4-d]imidazol-4-yl)benzo[d]oxazole] was tested, and the AC50 (A375 R408W cells) was 1000 to 5000 nM.

Work on `O=C(N1CCc2[nH]cnc2C1c1nc2cc(F)ccc2o1)C(F)(F)C1(O)CCC1` (stereo not shown) yielded an AC50 [1] of 1000 to 5000 nM.

`O=C(c1cnc(-c2ccccn2)o1)N1CCc2[nH]cnc2[C@H]1c1nc2cc(F)ccc2o1` [Example 11, (S)-(4-(5-fluorobenzo[d]oxazol-2-yl)-6,7-dihydro-1H-imidazo[4,5-c]pyridin-5(4H)-yl)(2-(pyridin-2-yl)oxazol-5-yl)methanone] showed an AC50 (A375 R408W cells) of 500 to 1000 nM.

`Cc1cccc2oc([C@H]3c4nc[nH]c4CCN3C(=O)c3ocnc3C(F)F)nc12` [Example 381, (R)-(4-(difluoromethyl)oxazol-5-yl)(4-(4-methylbenzo[d]oxazol-2-yl)-6,7-dihydro-1H-imidazo[4,5-c]pyridin-5(4H)-yl)methanone] gave an AC50 (A375 R408W cells) of 1000 to 5000 nM.

In the case of `CC(C)(O)c1nc(C(F)F)c(C(=O)N2CCc3[nH]cnc3[C@H]2c2nc3cccc(OC(F)(F)F)c3o2)o1` [Example 529, (S)-(4-(difluoromethyl)-2-(2-hydroxypropan-2-yl)oxazol-5-yl)(4-(7-(trifluoromethoxy)benzo[d]oxazol-2-yl)-6,7-dihydro-1H-imidazo[4,5-c]pyridin-5(4H)-yl)methanone], the AC50 (A375 R408W cells) is reported as ≤ 500 nM.

`CC(C)(O)c1nc(C(F)F)c(C(=O)N2CCc3[nH]cnc3[C@@H]2c2nc3cc(C(F)(F)F)ccc3o2)o1` [Example 328, (R)-(4-(difluoromethyl)-2-(2-hydroxypropan-2-yl)oxazol-5-yl)(4-(5-(trifluoromethyl)benzo[d]oxazol-2-yl)-6,7-dihydro-1H-imidazo[4,5-c]pyridin-5(4H)-yl)methanone] was tested, and the AC50 (A375 R408W cells) was ≤ 500 nM.

`Cn1nc(C(F)F)nc1C(=O)N1CCc2[nH]cnc2[C@@H]1c1nc2c(F)ccc(F)c2o1` [Example 485, (R)-(4-(4,7-difluorobenzo[d]oxazol-2-yl)-6,7-dihydro-1H-imidazo[4,5-c]pyridin-5(4H)-yl)(3-(difluoromethyl)-1-methyl-1H-1,2,4-triazol-5-yl)methanone] gave an AC50 (A375 R408W cells) of 1000 to 5000 nM.

With `Cn1nccc1C(=O)N1CCc2[nH]cnc2[C@H]1c1nc2ccccc2o1` [Example 711, (S)-(4-(benzo[d]oxazol-2-yl)-6,7-dihydro-1H-imidazo[4,5-c]pyridin-5(4H)-yl)(1-methyl-1H-pyrazol-5-yl)methanone] the AC50 (A375 R408W cells) was 1000 to 5000 nM.

With `O=C(c1ocnc1C(F)F)N1CCc2[nH]cnc2[C@@H]1c1nc2cc(Br)cc(F)c2o1` [Example 574, (R)-(4-(5-bromo-7-fluorobenzo[d]oxazol-2-yl)-6,7-dihydro-1H-imidazo[4,5-c]pyridin-5(4H)-yl)(4-(difluoromethyl)oxazol-5-yl)methanone] the AC50 (A375 R408W cells) was ≤ 500 nM.

`O=C(c1ocnc1C(F)F)N1CCc2[nH]cnc2[C@@H]1c1nc2cccc(Cl)c2o1` [Example 426, (R)-(4-(7-chlorobenzo[d]oxazol-2-yl)-6,7-dihydro-1H-imidazo[4,5-c]pyridin-5(4H)-yl)(4-(difluoromethyl)oxazol-5-yl)methanone] was tested, and the AC50 (A375 R408W cells) was ≤ 500 nM.

With `O=C(c1oc(-c2cnccn2)nc1C(F)F)N1CCc2[nH]cnc2[C@@H]1c1nc2cccc(F)c2o1` [Example 694, (R)-(4-(difluoromethyl)-2-(pyrazin-2-yl)oxazol-5-yl)(4-(7-fluorobenzo[d]oxazol-2-yl)-6,7-dihydro-1H-imidazo[4,5-c]pyridin-5(4H)-yl)methanone] the AC50 (A375 R408W cells) was ≤ 500 nM.

With `CN1CCN(c2ccc3c(C(=O)N4CCc5[nH]cnc5[C@H]4c4nc5c(F)cccc5o4)cnn3c2)CC1` [Example 475, (S)-(4-(4-fluorobenzo[d]oxazol-2-yl)-6,7-dihydro-1H-imidazo[4,5-c]pyridin-5(4H)-yl)(6-(4-methylpiperazin-1-yl)pyrazolo[1,5-a]pyridin-3-yl)methanone] the AC50 (A375 R408W cells) was ≤ 500 nM.

`CC(C)(O)c1nc(Cl)c(C(=O)N2CCc3[nH]cnc3[C@H]2c2nc3cccc(F)c3o2)o1` [Example 272, (S)-(4-chloro-2-(2-hydroxypropan-2-yl)oxazol-5-yl)(4-(7-fluorobenzo[d]oxazol-2-yl)-6,7-dihydro-1H-imidazo[4,5-c]pyridin-5(4H)-yl)methanone] was tested, and the AC50 (A375 R408W cells) was ≤ 500 nM.

Molecule `COc1ccc(-c2nnc(C(=O)N3CCc4[nH]cnc4[C@@H]3c3nc4cc(F)ccc4o3)o2)nc1` [Example 441, (R)-(4-(5-fluorobenzo[d]oxazol-2-yl)-6,7-dihydro-1H-imidazo[4,5-c]pyridin-5(4H)-yl)(5-(5-methoxypyridin-2-yl)-1,3,4-oxadiazol-2-yl)methanone] has an AC50 (A375 R408W cells) of 1000 to 5000 nM.

Work on `O=C(c1nnc(-c2ncccc2F)o1)N1CCc2[nH]cnc2[C@@H]1c1nc2c(F)ccc(F)c2o1` [Example 799, (R)-(4-(4,7-difluorobenzo[d]oxazol-2-yl)-6,7-dihydro-1H-imidazo[4,5-c]pyridin-5(4H)-yl)(5-(3-fluoropyridin-2-yl)-1,3,4-oxadiazol-2-yl)methanone] yielded an AC50 (A375 R408W cells) of 500 to 1000 nM.

In the case of `O=C(CC1CC1)N1CCc2[nH]cnc2[C@H]1c1nc2ccc(Br)cc2o1` [Example 3, (S)-1-(4-(6-bromobenzo[d]oxazol-2-yl)-6,7-dihydro-1H-imidazo[4,5-c]pyridin-5(4H)-yl)-2-cyclopropylethanone], the AC50 (A375 R408W cells) is reported as ≤ 500 nM.

For `O=C(c1ccnn1C1CC1)N1CCc2[nH]cnc2[C@H]1c1nc2cccc(F)c2o1` [Example 727, (S)-(1-cyclopropyl-1H-pyrazol-5-yl)(4-(7-fluorobenzo[d]oxazol-2-yl)-6,7-dihydro-1H-imidazo[4,5-c]pyridin-5(4H)-yl)methanone], the AC50 (A375 R408W cells) was 500 to 1000 nM.

In the case of `O=C(c1cnco1)N1CCc2[nH]cnc2[C@H]1c1nc2c(F)ccc(F)c2o1` [Example 483, (S)-(4-(4,7-difluorobenzo[d]oxazol-2-yl)-6,7-dihydro-1H-imidazo[4,5-c]pyridin-5(4H)-yl)(oxazol-5-yl)methanone], the AC50 (A375 R408W cells) is reported as 500 to 1000 nM.

With `O=C(c1oc(-c2ccc(F)cn2)nc1C(F)F)N1CCc2[nH]cnc2[C@H]1c1nc2cc(F)ccc2o1` [Example 418, (S)-(4-(difluoromethyl)-2-(5-fluoropyridin-2-yl)oxazol-5-yl)(4-(5-fluorobenzo[d]oxazol-2-yl)-6,7-dihydro-1H-imidazo[4,5-c]pyridin-5(4H)-yl)methanone] the AC50 (A375 R408W cells) was ≤ 500 nM.

Molecule `Cn1nc(C(F)F)cc1C(=O)N1CCc2[nH]cnc2[C@@H]1c1nc2cccc(F)c2o1` [Example 734, (R)-(3-(difluoromethyl)-1-methyl-1H-pyrazol-5-yl)(4-(7-fluorobenzo[d]oxazol-2-yl)-6,7-dihydro-1H-imidazo[4,5-c]pyridin-5(4H)-yl)methanone] has an AC50 (A375 R408W cells) of 1000 to 5000 nM.

Molecule `O=C(c1nnc(-c2ccc(C(F)(F)F)cc2)o1)N1CCc2[nH]cnc2[C@H]1c1nc2cc(F)ccc2o1` [Example 90, (S)-(4-(5-fluorobenzo[d]oxazol-2-yl)-6,7-dihydro-1H-imidazo[4,5-c]pyridin-5(4H)-yl)(5-(4-(trifluoromethyl)phenyl)-1,3,4-oxadiazol-2-yl)methanone] has an AC50 (A375 R408W cells) of 500 to 1000 nM.

Molecule `Cc1nc(C(=O)N2CCc3[nH]cnc3[C@H]2c2nc3c(C)cccc3o2)n(C)n1` [Example 819, (S)-(1,3-dimethyl-1H-1,2,4-triazol-5-yl)(4-(4-methylbenzo[d]oxazol-2-yl)-6,7-dihydro-1H-imidazo[4,5-c]pyridin-5(4H)-yl)methanone] has an AC50 (A375 R408W cells) of 500 to 1000 nM.

For `O=C(c1ccnn1C(F)F)N1CCc2[nH]cnc2[C@H]1c1nc2cc(F)cc(F)c2o1` [Example 609], the AC50 (A375 R408W cells) was 500 to 1000 nM.

For `O=C(c1cnn2cc(N3CCC(F)CC3)ccc12)N1CCc2[nH]cnc2[C@H]1c1nc2c(F)cccc2o1` [Example 477, (S)-(4-(4-fluorobenzo[d]oxazol-2-yl)-6,7-dihydro-1H-imidazo[4,5-c]pyridin-5(4H)-yl)(6-(4-fluoropiperidin-1-yl)pyrazolo[1,5-a]pyridin-3-yl)methanone], the AC50 (A375 R408W cells) was ≤ 500 nM.

For `CC(F)(F)c1ncoc1C(=O)N1CCc2[nH]cnc2[C@H]1c1nc2c(F)cccc2o1` [Example 651, (S)-(4-(1,1-difluoroethyl)oxazol-5-yl)(4-(4-fluorobenzo[d]oxazol-2-yl)-6,7-dihydro-1H-imidazo[4,5-c]pyridin-5(4H)-yl)methanone], the AC50 (A375 R408W cells) was ≤ 500 nM.

In the case of `O=C(C1CC1(F)F)N1CCc2[nH]cnc2C1c1nc2cc(F)ccc2o1` (stereo not shown), the AC50 [1] is reported as ≥ 5000 nM.
